Data from US8999974B2, “Acyl piperazine derivatives as TTX-S blockers” (Raqualia Pharma Inc., priority 2010, dated 2015).

The molecules below were run against T1, human NaV1.3 (Homo sapiens, UniProt Q9NY46) (assay: FRET assay (EFS, FDSS) on HEK293 cells expressing human NaV1.3 channels). Conditions: FRET assay, HEK293 cells expressing human NaV1.3; read-out: IC50 against Nav1.3.
T1 construct: expressed in transfected cells; host or cells: HEK293
Assay type: cell-based
Protocol: (§1) This screen was used to determine the effects of compounds on human NaV1.3, human Nav1.7, and human Nav1.5 channels, utilising electrical field stimulation (EFS) system in 96-well plate format on FDSS (Hamamatsu Photonics) platform. The change of membrane potential was monitored with FRET dye pair, oxonol (DiSBAC2(3)) and coumarin (CC2-DMPE).
Each HEK293 cells expressing human NaV1.3 channels and HEK293 cells expressing human NaV1.5 channels were grown in T225 flasks, in a 5% CO2 humidified incubator to about 80% confluence. Media composition consisted of Dulbecco's Modified Eagle Medium (high glucose), 10% FCS, 100 units/ml Penicillin, 100 microgram/ml Streptomycin and 500 microgram/ml Geneticine.
(§2) Protocol: • Seeded each cell lines (1×10^5 cells/well) into poly-D-lysine coated 96-well plates prior to experimentation. • Incubated at 37° C. in 5% CO2 for 24 hours. • Washed each well with assay buffer (140 mM NaCl, 4.5 mM KCl, 10 mM D-Glucose, 2 mM CaCl2, 1 mM MgCl2, 10 mM HEPES, pH 7.4 adjusted with NaOH) twice. • Added 1st loading solution containing 10 microM CC2-DMPE and 0.06% Pluronic F-127 in assay buffer. • Incubated the plate at room temperature in dark for 1 hour. • Removed 1st loading solution and added 2nd loading solution containing 15 microM DiSBAC2(3), 0.555 mM VABSC-1 and 0.004% Pluronic F-127 in assay buffer. • Placed the plate under the dark at room temperature for 25 minutes. • Added compound solutions into the assay plate. • Set the assay plate in FDSS and placed an EFS device on the plate. • Measured EFS-induced fluorescent response by FDSS.
(§3) The data were analyzed and reported as normalized ratios of intensities measured at […]. The process of calculating these ratios was performed as follows:
(§4) [formula] This analysis was performed using a computerized specific program designed for FDSS generated data. Fluorescence ratio values were plotted using XLfit to determine an IC50 value for each compound.

T1 sequence (Q9NY46 whole entry): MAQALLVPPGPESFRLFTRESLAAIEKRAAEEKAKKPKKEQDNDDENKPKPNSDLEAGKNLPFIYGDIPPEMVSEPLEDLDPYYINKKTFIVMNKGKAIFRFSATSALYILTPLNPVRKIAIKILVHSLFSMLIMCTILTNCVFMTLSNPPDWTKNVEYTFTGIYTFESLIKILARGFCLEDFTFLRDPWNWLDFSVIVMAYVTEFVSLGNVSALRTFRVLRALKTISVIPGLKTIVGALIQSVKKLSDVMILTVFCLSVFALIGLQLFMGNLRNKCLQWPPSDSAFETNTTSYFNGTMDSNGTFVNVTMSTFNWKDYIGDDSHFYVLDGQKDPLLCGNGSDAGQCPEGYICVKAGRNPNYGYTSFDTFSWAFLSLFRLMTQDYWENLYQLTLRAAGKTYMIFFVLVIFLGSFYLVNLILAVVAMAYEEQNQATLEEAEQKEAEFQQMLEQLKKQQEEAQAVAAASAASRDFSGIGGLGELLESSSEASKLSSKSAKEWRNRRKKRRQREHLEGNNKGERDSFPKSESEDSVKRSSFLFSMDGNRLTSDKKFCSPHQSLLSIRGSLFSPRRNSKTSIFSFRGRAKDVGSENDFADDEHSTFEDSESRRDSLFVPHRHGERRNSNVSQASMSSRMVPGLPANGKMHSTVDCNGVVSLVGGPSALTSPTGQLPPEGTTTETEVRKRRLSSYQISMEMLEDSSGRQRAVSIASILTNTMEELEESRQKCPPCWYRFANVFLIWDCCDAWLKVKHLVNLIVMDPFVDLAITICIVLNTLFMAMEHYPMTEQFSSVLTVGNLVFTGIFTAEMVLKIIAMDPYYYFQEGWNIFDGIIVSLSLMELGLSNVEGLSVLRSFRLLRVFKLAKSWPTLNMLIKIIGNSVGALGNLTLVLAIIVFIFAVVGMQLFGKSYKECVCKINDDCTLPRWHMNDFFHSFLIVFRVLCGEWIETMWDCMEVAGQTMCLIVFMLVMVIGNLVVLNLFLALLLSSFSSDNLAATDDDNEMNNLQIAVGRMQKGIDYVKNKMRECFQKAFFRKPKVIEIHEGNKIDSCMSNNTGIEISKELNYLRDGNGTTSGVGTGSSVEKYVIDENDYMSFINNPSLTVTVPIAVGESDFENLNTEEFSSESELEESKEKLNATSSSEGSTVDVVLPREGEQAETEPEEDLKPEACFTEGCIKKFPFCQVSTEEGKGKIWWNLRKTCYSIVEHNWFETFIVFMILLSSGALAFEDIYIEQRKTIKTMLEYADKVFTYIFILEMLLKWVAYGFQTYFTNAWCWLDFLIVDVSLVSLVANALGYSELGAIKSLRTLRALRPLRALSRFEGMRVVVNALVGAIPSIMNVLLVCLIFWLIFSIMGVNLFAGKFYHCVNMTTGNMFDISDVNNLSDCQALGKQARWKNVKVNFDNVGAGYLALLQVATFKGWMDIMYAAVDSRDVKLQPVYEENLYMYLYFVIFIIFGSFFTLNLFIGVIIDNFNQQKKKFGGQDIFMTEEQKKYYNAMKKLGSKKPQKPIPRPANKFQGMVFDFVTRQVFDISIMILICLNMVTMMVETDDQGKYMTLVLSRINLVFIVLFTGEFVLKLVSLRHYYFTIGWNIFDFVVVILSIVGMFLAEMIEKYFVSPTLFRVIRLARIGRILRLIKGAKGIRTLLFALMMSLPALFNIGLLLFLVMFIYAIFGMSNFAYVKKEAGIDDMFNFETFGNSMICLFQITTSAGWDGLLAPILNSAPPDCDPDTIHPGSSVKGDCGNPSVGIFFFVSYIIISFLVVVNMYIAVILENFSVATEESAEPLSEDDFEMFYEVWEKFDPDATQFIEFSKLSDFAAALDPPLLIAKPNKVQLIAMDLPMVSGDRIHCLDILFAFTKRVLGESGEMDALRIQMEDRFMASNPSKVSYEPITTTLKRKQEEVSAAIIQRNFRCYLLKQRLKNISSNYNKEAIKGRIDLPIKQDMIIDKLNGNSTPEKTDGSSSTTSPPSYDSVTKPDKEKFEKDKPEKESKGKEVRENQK

IC50, < 3 µM:
O=C(Cn1nc2ccccc2n1)N1CCN(c2cc(OC3CCC3)ncn2)CC1 [Example 220, 2-(2H-benzo[d][1,2,3]triazol-2-yl)-1-(4-(6-cyclobutoxypyrimidin-4-yl)piperazin-1-yl)ethanone]
CCn1nc(C(=O)N2CCN(c3cc(OCC(C)C)ncn3)CC2)cc1C(F)(F)F [Example 228, (1-ethyl-5-(trifluoromethyl)-1H-pyrazol-3-yl)(4-(6-isobutoxypyrimidin-4-yl)piperazin-1-yl)methanone]
CCOc1cccc(C(=O)N2CCN(c3cc(OCC(C)C)ncn3)CC2)n1 [Example 231, (6-ethoxypyridin-2-yl)(4-(6-isobutoxypyrimidn-4-yl)piperazin-1-yl)methanone]
CC(C)COc1cc(N2CCN(C(=O)c3cccc(OCC(F)(F)F)n3)CC2)ncn1 [Example 232, (4-(6-isobutoxypyrimidin-4-yl)piperazin-1-yl)(6-(2,2,2-trifluoroethoxy)pyridin-2-yl)methanone]
CC(C)COc1cc(N2CCN(C(=O)c3csc(C(C)C)n3)CC2)ncn1 [Example 233, (4-(6-isobutoxypyrimidin-4-yl)piperazin-1-yl)(2-isopropylthiazol-4-yl)methanone]
CCOc1cc(N2CCN(C(=O)c3csc(-c4ccccn4)n3)CC2)ncn1 [Example 241, (4-(6-ethoxypyrimidin-4-yl)piperazin-1-yl)(2-(pyridin-2-yl)thiazol-4-yl)methanone]

The molecules below were run against T2, human Nav1.7 (Homo sapiens, UniProt Q15858) (assay: FRET assay (EFS, FDSS) on CHO cells expressing human NaV1.7 channels). Conditions: FRET assay, CHO cells expressing human NaV1.7; read-out: IC50 against Nav1.7.
T2 construct: expressed in transfected cells; host or cells: CHO
Assay type: cell-based
Protocol: as §1
CHO cells expressing human NaV1.7 channels were grown in T225 flasks, in a 5% CO2 humidified incubator to about 80% confluence. Media composition consisted of HAM/F12 with Glutamax I, 10% FCS, 100 units/ml Penicillin and 100 microgram/ml Hygromycin.
as §2, §3, §4

T2 sequence (Q15858 whole entry): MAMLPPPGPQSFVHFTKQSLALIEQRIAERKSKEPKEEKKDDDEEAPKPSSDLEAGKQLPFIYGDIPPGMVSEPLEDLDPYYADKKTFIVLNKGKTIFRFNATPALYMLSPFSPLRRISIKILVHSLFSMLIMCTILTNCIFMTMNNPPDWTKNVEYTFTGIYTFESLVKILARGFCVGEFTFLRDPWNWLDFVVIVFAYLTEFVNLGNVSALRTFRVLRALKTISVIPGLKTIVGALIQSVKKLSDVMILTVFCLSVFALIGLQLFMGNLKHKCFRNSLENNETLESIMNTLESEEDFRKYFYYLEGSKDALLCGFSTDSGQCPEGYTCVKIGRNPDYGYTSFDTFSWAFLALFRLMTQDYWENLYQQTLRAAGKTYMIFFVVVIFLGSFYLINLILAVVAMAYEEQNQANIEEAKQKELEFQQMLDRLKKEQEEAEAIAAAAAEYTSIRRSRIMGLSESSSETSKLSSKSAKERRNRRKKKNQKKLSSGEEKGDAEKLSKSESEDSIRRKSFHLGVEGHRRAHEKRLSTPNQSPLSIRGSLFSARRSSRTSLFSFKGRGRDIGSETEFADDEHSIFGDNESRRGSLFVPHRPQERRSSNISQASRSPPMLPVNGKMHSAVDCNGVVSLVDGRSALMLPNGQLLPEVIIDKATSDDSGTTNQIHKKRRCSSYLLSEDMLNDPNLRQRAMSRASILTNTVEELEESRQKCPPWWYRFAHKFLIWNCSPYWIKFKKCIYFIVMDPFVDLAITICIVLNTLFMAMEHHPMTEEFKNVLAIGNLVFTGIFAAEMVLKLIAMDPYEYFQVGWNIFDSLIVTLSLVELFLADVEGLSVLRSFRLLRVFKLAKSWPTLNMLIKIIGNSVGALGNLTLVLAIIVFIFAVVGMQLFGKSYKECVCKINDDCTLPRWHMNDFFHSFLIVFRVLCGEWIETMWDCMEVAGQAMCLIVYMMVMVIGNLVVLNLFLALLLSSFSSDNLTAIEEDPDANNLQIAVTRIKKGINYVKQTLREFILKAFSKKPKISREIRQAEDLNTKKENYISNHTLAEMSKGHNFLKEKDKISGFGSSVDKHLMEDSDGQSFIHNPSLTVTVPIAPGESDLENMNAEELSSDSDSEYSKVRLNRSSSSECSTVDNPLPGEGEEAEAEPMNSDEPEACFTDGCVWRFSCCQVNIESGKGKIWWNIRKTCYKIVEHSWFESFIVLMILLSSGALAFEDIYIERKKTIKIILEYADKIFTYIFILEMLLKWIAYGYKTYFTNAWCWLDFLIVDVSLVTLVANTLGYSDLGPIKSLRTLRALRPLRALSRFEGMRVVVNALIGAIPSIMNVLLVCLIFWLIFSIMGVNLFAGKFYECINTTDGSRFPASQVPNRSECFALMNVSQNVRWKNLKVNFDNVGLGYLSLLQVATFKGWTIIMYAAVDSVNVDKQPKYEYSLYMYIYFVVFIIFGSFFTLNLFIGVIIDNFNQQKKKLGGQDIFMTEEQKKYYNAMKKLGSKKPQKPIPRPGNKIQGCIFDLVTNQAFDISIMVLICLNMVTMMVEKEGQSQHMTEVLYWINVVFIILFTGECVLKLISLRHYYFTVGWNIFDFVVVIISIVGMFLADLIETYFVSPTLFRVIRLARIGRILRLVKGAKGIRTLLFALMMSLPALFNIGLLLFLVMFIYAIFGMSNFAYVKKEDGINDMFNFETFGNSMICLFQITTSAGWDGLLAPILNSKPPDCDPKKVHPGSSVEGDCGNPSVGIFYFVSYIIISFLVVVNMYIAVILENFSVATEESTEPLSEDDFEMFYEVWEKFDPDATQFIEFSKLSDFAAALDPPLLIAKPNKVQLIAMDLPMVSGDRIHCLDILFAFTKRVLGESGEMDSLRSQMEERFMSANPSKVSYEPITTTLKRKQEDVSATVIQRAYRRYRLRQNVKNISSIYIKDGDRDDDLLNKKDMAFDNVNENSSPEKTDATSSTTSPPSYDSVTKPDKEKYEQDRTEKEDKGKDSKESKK

IC50, < 3 µM:
Cc1ccc(C(=O)N2CCN(c3cc(OCC(F)(F)F)ncn3)CC2)cc1F [Example 8, 3-(fluoro-4-methylphenyl)(4-(6-(2,2,2-trifluoroethoxy)pyrimidin-4-yl)piperazin-1-yl)methanone]
CC(C)COc1cc(N2CCN(C(=O)[C@@H](NC(=O)OC(C)(C)C)c3ccccc3)CC2)ncn1 [Example 10, (S)-tert-butyl (2-(4-(6-isobutoxypyrimidin-4-yl)piperazin-1-yl)-2-oxo-1-phenylethyl)carbamate]
CC(C)COc1cc(N2CCN(C(=O)[C@@H](N)c3ccccc3)CC2)ncn1 [Example 27, (S)-2-amino-1-(4-(6-isobutoxypyrimidin-4-yl)piperazin-1-yl)-2-phenylethanone]
CC(C)COc1cc(N2CCN(C(=O)c3ccc4cccc(O)c4n3)CC2)ncn1 [Example 32, (8-hydroxyquinolin-2-yl)(4-(6-isobutoxypyrimidin-4-yl)piperazin-1-yl)methanone]
CC(C)COc1cc(N2CCN(C(=O)c3ccc(Cl)c(F)c3)CC2)ncn1 [Example 39, (4-chloro-3-fluorophenyl)(4-(6-isobutoxypyrimidin-4-yl)piperazin-1-yl)methanone]
CC(C)COc1cc(N2CCN(C(=O)c3ccc(C(F)(F)F)cc3O)CC2)ncn1 [Example 42, (2-hydroxy-4-(trifluoromethyl)phenyl)(4-(6-isobutoxypyrimidin-4-yl)piperazin-1-yl)methanone]
CC(C)COc1cc(N2CCN(C(=O)c3cc4ccccc4n3C)CC2)ncn1 [Example 43, (4-(6-isobutoxypyrimidin-4-yl)piperazin-1-yl)(1-methyl-1H-indol-2-yl)methanone]
CC(C)COc1cc(N2CCN(C(=O)Cc3c[nH]c4ccc(F)cc34)CC2)ncn1 [Example 60, 2-(5-fluoro-1H-indol-3-yl)-1-(4-(6-isobutoxypyrimidin-4-yl)piperazin-1-yl)ethanone]
O=C(c1ccc2cccc(O)c2n1)N1CCN(c2cc(OCC(F)(F)F)ncn2)CC1 [Example 65, (8-hydroxyquinolin-2-yl)(4-(6-(2,2,2-trifluoroethoxy)pyrimidin-4-yl)piperazin-1-yl)methanone]
CC(C)COc1cc(N2CCN(C(=O)CNC(=O)c3cccc4[nH]ccc34)CC2)ncn1 [Example 75, N-(2-(4-(6-isobutoxypyrimidin-4-yl)piperazin-1-yl)-2-oxoethyl)-1H-indole-4-carboxamide]
